Measurements as given in patent US10538554B2, “Peptides and uses therefor as antiviral agents” (priority 2015, dated 2020).
Bridge positions count the residues as written; N and C are the ends. Square brackets hold non-standard residues; d marks the D form. Peptide text beside a SMILES is read from it.

How the values were obtained:
H1N1 A/NY/18/2009 = details: A/NY/18/2009, 48 h, 10 μM
H9N2 A/Iran/16/2000 = details: 48 h, 10 μM
H3N8 A/Miami/2/63 = details: A/Miami/2/63, 48 h, 10 μM
H1N1 A/PR/8/1934 = details: A/PR/8/1934, 48 h, 10 μM
[1] = test system: H1N1 A1/Malaysia/302/1954; details: A1/Malaysia/302/1954, 48 h, 10 μM
H3N2 A/HK/8/1968 = details: A/HK/8/1968, 48 h, 10 μM

| Compound | % Inhibition Pdm 2009 (H1N1 A/NY/18/2009) [%] | % inhibition H9N2 (H9N2 A/Iran/16/2000) [%] | % inhibition H3N8 (H3N8 A/Miami/2/63) [%] | % Inhibition PR/8 (H1N1 A/PR/8/1934) [%] | % inhibition H1N1 [1] [%] | % inhibition H3N2 (H3N2 A/HK/8/1968) [%] |
| --- | --- | --- | --- | --- | --- | --- |
| CC[C@@H](C)[C@H]1NC(=O)[C@@H](Cc2ccccc2)NC(=O)[C@@H](CS)NC(=O)[C@@H](Cc2ccccc2)NC(=O)[C@@H](Cc2c[nH]c3ccccc23)NC(=O)[C@@H]([C@H](C)O)NC(=O)[C@H](NC(=O)[C@H](CCCCN)NC(=O)[C@H](CCCCN)NC(=O)[C@H](CCCNC(=N)N)NC(=O)[C@@H](N)CCCNC(=N)N)CSSC[C@H](C(=O)O)NC(=O)[C@@H](CC(N)=O)NC1=O [PSP IV A2, H-RRKKctwfcfinc-OH] (H-RRKK[dC][dT][dW][dF][dC][dF][dI][dN][dC]-OH; disulfide 5-13) | 68 | 64 | 76 | 68 | 60 | 82 |
| CC[C@@H](C)[C@H]1NC(=O)[C@@H](Cc2ccccc2)NC(=O)[C@@H](Cc2ccc(O)cc2)NC(=O)[C@@H](Cc2ccccc2)NC(=O)[C@@H](Cc2c[nH]c3ccccc23)NC(=O)[C@@H]([C@H](C)O)NC(=O)[C@H](NC(=O)[C@H](CCCCN)NC(=O)[C@H](CCCCN)NC(=O)[C@H](CCCNC(=N)N)NC(=O)[C@@H](N)CCCNC(=N)N)CSSC[C@H](C(=O)O)NC(=O)[C@@H](CC(N)=O)NC1=O [PSP IV A20, H-RRKKctwfyfinc-OH] (H-RRKK[dC][dT][dW][dF][dY][dF][dI][dN][dC]-OH; disulfide 5-13) | 79 | 85 | 89 | 85 | 79 | 89 |
| CC[C@@H](C)[C@H]1NC(=O)[C@@H](Cc2ccccc2)NC(=O)[C@@H](CCSC)NC(=O)[C@@H](Cc2ccccc2)NC(=O)[C@@H](Cc2c[nH]c3ccccc23)NC(=O)[C@@H]([C@H](C)O)NC(=O)[C@H](NC(=O)[C@H](CCCCN)NC(=O)[C@H](CCCCN)NC(=O)[C@H](CCCNC(=N)N)NC(=O)[C@@H](N)CCCNC(=N)N)CSSC[C@H](C(=O)O)NC(=O)[C@@H](CC(N)=O)NC1=O [PSP IV A11, H-RRKKctwfmfinc-OH] (H-RRKK[dC][dT][dW][dF][dM][dF][dI][dN][dC]-OH; disulfide 5-13) | 88 | 84 | 93 | 85 | 89 | 90 |
| CC[C@@H](C)[C@H]1NC(=O)[C@@H](Cc2ccccc2)NC(=O)[C@H]2CCCN2C(=O)[C@@H](Cc2ccccc2)NC(=O)[C@@H](Cc2c[nH]c3ccccc23)NC(=O)[C@@H]([C@H](C)O)NC(=O)[C@H](NC(=O)[C@H](CCCCN)NC(=O)[C@H](CCCCN)NC(=O)[C@H](CCCNC(=N)N)NC(=O)[C@@H](N)CCCNC(=N)N)CSSC[C@H](C(=O)O)NC(=O)[C@@H](CC(N)=O)NC1=O [PSP IV A13, H-RRKKctwfpfinc-OH] (H-RRKK[dC][dT][dW][dF][dP][dF][dI][dN][dC]-OH; disulfide 5-13) | 65 | 55 | 69 | 66 | 52 | 74 |
| CC[C@@H](C)[C@H]1NC(=O)[C@@H](Cc2ccccc2)NC(=O)[C@@H](Cc2c[nH]cn2)NC(=O)[C@@H](Cc2ccccc2)NC(=O)[C@@H](Cc2c[nH]c3ccccc23)NC(=O)[C@@H]([C@H](C)O)NC(=O)[C@H](NC(=O)[C@H](CCCCN)NC(=O)[C@H](CCCCN)NC(=O)[C@H](CCCNC(=N)N)NC(=O)[C@@H](N)CCCNC(=N)N)CSSC[C@H](C(=O)O)NC(=O)[C@@H](CC(N)=O)NC1=O [PSP IV A7, H-RRKKctwfhfinc-OH] (H-RRKK[dC][dT][dW][dF][dH][dF][dI][dN][dC]-OH; disulfide 5-13) | 71 | 65 | 79 | 73 | 68 | 80 |
| CC[C@@H](C)[C@H]1NC(=O)[C@@H](Cc2ccccc2)NC(=O)[C@@H](CC(C)C)NC(=O)[C@@H](Cc2ccccc2)NC(=O)[C@@H](Cc2c[nH]c3ccccc23)NC(=O)[C@@H]([C@H](C)O)NC(=O)[C@H](NC(=O)[C@H](CCCCN)NC(=O)[C@H](CCCCN)NC(=O)[C@H](CCCNC(=N)N)NC(=O)[C@@H](N)CCCNC(=N)N)CSSC[C@H](C(=O)O)NC(=O)[C@@H](CC(N)=O)NC1=O [PSP IV A10, H-RRKKctwflfinc-OH] (H-RRKK[dC][dT][dW][dF][dL][dF][dI][dN][dC]-OH; disulfide 5-13) | 85 | 97 | 96 | 96 | 90 | 96 |
| CC[C@@H](C)[C@H]1NC(=O)[C@@H](Cc2ccccc2)NC(=O)[C@@H]([C@H](C)CC)NC(=O)[C@@H](Cc2ccccc2)NC(=O)[C@@H](Cc2c[nH]c3ccccc23)NC(=O)[C@@H]([C@H](C)O)NC(=O)[C@H](NC(=O)[C@H](CCCCN)NC(=O)[C@H](CCCCN)NC(=O)[C@H](CCCNC(=N)N)NC(=O)[C@@H](N)CCCNC(=N)N)CSSC[C@H](C(=O)O)NC(=O)[C@@H](CC(N)=O)NC1=O [PSP IV A8, H-RRKKctwfifinc-OH] (H-RRKK[dC][dT][dW][dF][dI][dF][dI][dN][dC]-OH; disulfide 5-13) | 95 | 92 | 96 | 97 | 92 | 96 |
| CC[C@@H](C)[C@H]1NC(=O)[C@@H](Cc2ccccc2)NC(=O)[C@@H](C(C)C)NC(=O)[C@@H](Cc2ccccc2)NC(=O)[C@@H](Cc2c[nH]c3ccccc23)NC(=O)[C@@H]([C@H](C)O)NC(=O)[C@H](NC(=O)[C@H](CCCCN)NC(=O)[C@H](CCCCN)NC(=O)[C@H](CCCNC(=N)N)NC(=O)[C@@H](N)CCCNC(=N)N)CSSC[C@H](C(=O)O)NC(=O)[C@@H](CC(N)=O)NC1=O [PSP IV A18, H-RRKKctwfvfinc-OH] (H-RRKK[dC][dT][dW][dF][dV][dF][dI][dN][dC]-OH; disulfide 5-13) | 97 | 95 | 96 | 96 | 84 | 96 |
| CC[C@@H](C)[C@H]1NC(=O)[C@@H](Cc2ccccc2)NC(=O)[C@@H](Cc2c[nH]c3ccccc23)NC(=O)[C@@H](Cc2ccccc2)NC(=O)[C@@H](Cc2c[nH]c3ccccc23)NC(=O)[C@@H]([C@H](C)O)NC(=O)[C@H](NC(=O)[C@H](CCCCN)NC(=O)[C@H](CCCCN)NC(=O)[C@H](CCCNC(=N)N)NC(=O)[C@@H](N)CCCNC(=N)N)CSSC[C@H](C(=O)O)NC(=O)[C@@H](CC(N)=O)NC1=O [PSP IV A19, H-RRKKctwfwfinc-OH] (H-RRKK[dC][dT][dW][dF][dW][dF][dI][dN][dC]-OH; disulfide 5-13) | 94 | 95 | 94 | 90 | 87 | 94 |
| CC[C@@H](C)[C@H]1NC(=O)[C@@H](Cc2ccccc2)NC(=O)[C@@H](CCCCN)NC(=O)[C@@H](Cc2ccccc2)NC(=O)[C@@H](Cc2c[nH]c3ccccc23)NC(=O)[C@@H]([C@H](C)O)NC(=O)[C@H](NC(=O)[C@H](CCCCN)NC(=O)[C@H](CCCCN)NC(=O)[C@H](CCCNC(=N)N)NC(=O)[C@@H](N)CCCNC(=N)N)CSSC[C@H](C(=O)O)NC(=O)[C@@H](CC(N)=O)NC1=O [PSP IV A9, H-RRKKctwfkfinc-OH] (H-RRKK[dC][dT][dW][dF][dK][dF][dI][dN][dC]-OH; disulfide 5-13) | 66 | 39 | 79 | 74 | 56 | 73 |
| CC[C@@H](C)[C@H]1NC(=O)[C@@H](Cc2ccccc2)NC(=O)[C@@H](CO)NC(=O)[C@@H](Cc2ccccc2)NC(=O)[C@@H](Cc2c[nH]c3ccccc23)NC(=O)[C@@H]([C@H](C)O)NC(=O)[C@H](NC(=O)[C@H](CCCCN)NC(=O)[C@H](CCCCN)NC(=O)[C@H](CCCNC(=N)N)NC(=O)[C@@H](N)CCCNC(=N)N)CSSC[C@H](C(=O)O)NC(=O)[C@@H](CC(N)=O)NC1=O [PSP IV A16, H-RRKKctwfsfinc-OH] (H-RRKK[dC][dT][dW][dF][dS][dF][dI][dN][dC]-OH; disulfide 5-13) | 81 | 89 | 93 | 78 | 91 | 96 |
| CC[C@@H](C)[C@H]1NC(=O)[C@@H](Cc2ccccc2)NC(=O)[C@@H](CCC(N)=O)NC(=O)[C@@H](Cc2ccccc2)NC(=O)[C@@H](Cc2c[nH]c3ccccc23)NC(=O)[C@@H]([C@H](C)O)NC(=O)[C@H](NC(=O)[C@H](CCCCN)NC(=O)[C@H](CCCCN)NC(=O)[C@H](CCCNC(=N)N)NC(=O)[C@@H](N)CCCNC(=N)N)CSSC[C@H](C(=O)O)NC(=O)[C@@H](CC(N)=O)NC1=O [PSP IV A14, H-RRKKctwfqfinc-OH] (H-RRKK[dC][dT][dW][dF][dQ][dF][dI][dN][dC]-OH; disulfide 5-13) | 74 | 68 | 83 | 77 | 66 | 83 |
